Experimental data reported in patent US20090298820A1, “3-SUBSTITUTED-1H-PYRROLO[2,3-B]PYRIDINE AND 3-SUBSTITUTED-1H-PYRROLO[3,2-B]PYRIDINE COMPOUNDS, THEIR USE AS MTOR KINASE AND PI3 KINASE INHIBITORS, AND THEIR SYNTHESES” (Wyeth, priority 2008, published 2009).

What was measured:
mTOR = mTOR (Homo sapiens, UniProt P42345); test: mTOR enzyme assay (DELFIA format, His6-S6K substrate); type: biochemical; details: read-out: mTOR Kinase Median IC50
PI3Kγ = PI3Kγ (Homo sapiens, UniProt P48736); test: PI3K-gamma fluorescence polarization assay; type: biochemical; details: read-out: PI3Kγ Median IC50
Sequence of PI3Kγ (P48736 whole entry, species assumed): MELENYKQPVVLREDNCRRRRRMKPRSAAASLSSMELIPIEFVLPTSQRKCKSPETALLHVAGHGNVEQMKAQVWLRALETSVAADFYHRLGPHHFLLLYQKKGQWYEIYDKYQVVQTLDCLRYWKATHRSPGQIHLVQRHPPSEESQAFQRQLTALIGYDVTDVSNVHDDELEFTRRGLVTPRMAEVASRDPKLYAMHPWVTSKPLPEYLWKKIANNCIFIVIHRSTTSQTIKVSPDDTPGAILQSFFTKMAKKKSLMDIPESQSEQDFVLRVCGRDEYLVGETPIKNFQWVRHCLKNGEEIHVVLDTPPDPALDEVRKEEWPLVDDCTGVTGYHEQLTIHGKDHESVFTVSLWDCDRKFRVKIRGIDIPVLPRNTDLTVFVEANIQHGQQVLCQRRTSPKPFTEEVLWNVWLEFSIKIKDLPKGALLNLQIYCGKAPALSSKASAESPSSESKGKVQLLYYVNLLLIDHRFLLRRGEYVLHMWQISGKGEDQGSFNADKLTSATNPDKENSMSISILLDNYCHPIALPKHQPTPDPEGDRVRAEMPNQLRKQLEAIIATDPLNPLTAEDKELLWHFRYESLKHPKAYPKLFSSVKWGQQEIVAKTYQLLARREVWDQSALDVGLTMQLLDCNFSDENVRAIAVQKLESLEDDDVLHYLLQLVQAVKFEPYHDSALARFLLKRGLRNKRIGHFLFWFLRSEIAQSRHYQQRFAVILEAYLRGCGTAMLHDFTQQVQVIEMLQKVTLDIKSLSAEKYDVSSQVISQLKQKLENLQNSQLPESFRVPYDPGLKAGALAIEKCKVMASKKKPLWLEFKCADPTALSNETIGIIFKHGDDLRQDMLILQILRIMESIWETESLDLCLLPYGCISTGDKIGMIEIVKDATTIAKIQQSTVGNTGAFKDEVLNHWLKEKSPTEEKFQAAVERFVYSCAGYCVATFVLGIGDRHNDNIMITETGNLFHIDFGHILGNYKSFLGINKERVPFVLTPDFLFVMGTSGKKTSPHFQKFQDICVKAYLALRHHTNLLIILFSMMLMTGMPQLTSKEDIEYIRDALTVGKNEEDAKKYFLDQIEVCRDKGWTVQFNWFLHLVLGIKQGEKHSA

PI3Kα = PI3Kα (Homo sapiens, UniProt P42336); test: PI3K-alpha fluorescence polarization assay; type: biochemical; details: read-out: PI3Kα Median IC50
Sequence of PI3Kα (P42336 whole entry, species assumed): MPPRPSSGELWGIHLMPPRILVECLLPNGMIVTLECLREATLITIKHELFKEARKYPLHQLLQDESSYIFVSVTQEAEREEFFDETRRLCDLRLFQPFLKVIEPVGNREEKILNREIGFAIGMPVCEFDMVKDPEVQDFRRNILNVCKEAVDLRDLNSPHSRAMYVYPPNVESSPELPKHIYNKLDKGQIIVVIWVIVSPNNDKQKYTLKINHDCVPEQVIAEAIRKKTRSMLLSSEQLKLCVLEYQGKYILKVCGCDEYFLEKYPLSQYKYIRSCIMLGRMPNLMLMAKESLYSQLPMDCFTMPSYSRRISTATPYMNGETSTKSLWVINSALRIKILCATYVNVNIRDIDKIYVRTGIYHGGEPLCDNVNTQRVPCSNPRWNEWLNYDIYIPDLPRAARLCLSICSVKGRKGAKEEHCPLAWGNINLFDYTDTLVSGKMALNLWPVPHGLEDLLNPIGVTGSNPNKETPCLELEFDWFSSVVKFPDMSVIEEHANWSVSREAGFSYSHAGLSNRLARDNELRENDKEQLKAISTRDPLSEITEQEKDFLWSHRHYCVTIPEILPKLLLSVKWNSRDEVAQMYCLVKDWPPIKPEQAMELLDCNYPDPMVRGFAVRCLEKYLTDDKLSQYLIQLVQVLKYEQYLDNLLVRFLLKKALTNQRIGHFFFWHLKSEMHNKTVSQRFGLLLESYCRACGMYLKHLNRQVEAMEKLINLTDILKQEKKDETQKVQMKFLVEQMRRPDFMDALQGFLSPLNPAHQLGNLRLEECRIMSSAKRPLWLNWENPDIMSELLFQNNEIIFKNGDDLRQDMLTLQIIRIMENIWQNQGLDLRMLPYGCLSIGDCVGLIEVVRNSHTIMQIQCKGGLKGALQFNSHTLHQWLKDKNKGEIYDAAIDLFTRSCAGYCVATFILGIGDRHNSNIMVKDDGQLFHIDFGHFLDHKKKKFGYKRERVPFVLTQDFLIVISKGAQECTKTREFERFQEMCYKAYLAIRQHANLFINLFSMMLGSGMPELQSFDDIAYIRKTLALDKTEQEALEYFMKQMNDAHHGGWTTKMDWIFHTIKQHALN
Sequence of PI3Kα (P27986 whole entry partner, species assumed): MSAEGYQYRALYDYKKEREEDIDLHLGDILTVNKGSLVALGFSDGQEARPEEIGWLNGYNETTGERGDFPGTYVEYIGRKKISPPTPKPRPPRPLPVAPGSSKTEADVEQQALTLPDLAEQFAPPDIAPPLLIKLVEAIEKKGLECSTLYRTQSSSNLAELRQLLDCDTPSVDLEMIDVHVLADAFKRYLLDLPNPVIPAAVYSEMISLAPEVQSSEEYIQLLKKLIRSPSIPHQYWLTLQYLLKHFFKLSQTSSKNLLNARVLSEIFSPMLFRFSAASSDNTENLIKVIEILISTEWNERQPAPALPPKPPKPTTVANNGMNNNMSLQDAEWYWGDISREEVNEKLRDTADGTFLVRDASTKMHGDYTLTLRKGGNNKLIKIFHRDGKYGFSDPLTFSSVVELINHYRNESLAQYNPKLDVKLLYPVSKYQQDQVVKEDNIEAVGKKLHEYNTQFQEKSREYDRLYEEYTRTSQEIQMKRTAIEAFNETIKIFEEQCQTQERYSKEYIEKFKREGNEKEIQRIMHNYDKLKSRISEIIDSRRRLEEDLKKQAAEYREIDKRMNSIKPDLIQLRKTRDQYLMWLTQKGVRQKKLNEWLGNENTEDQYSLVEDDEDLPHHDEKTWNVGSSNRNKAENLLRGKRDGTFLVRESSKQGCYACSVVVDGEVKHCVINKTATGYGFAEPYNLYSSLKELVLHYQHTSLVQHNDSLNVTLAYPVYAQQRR

Row | Compound | IC50 (mTOR) | IC50 (PI3Kγ) | IC50 (PI3Kα) | melting point
1 | COc1cccc(-c2ccnc3c2c(/C=C2\Oc4cc(O)cc(O)c4C2=O)cn3C)c1 [Compound 66, (2Z)-4,6-dihydroxy-2-{[4-(3-methoxyphenyl)-1-methyl-1H-pyrrolo[2,3-b]pyridin-3-yl]methylene}-1-benzofuran-3(2H)-one] | 1.4 nM | 61 nM | 32 nM | 297 to 300 °C
2 | Cn1cc(/C=C2\Oc3ccc(NC(=O)C(F)(F)F)cc3C2=O)c2c(-c3ccccc3)ccnc21 [Compound 156, 2,2,2-trifluoro-N-{(2Z)-2-[(1-methyl-4-phenyl-1H-pyrrolo[2,3-b]pyridin-3-yl)methylidene]-3-oxo-2,3-dihydro-1-benzofuran-5-yl}acetamide] | 1650 nM | 6910 nM | 1940 nM | 295 to 302 °C
3 | Cn1cc(/C=C2\Oc3ccc(NC(=O)Nc4cccnc4)cc3C2=O)c2c(N3CCOC(C)(C)C3)ccnc21 [Compound 301, 1-[(2Z)-2-{[4-(2,2-dimethylmorpholin-4-yl)-1-methyl-1H-pyrrolo[2,3-b]pyridin-3-yl]methylidene}-3-oxo-2,3-dihydro-1-benzofuran-5-yl]-3-pyridin-3-ylurea] | 13 nM | 1110 nM | 566 nM | 222 to 226 °C
4 | CC(=O)Nc1ccc2c(c1)C(=O)/C(=C/c1cn(C)c3nccc(N4CC5CCC(C4)O5)c13)O2 [Compound 155, N-[(2Z)-2-{[1-methyl-4-(8-oxa-3-azabicyclo[3.2.1]oct-3-yl)-1H-pyrrolo[2,3-b]pyridin-3-yl]methylidene}-3-oxo-2,3-dihydro-1-benzofuran-5-yl]acetamide] | 14.5 nM | 306 nM | 150 nM | 275 to 285 °C (dec.)
5 | Cn1cc(/C=C2\Oc3cccc(O)c3C2=O)c2c(-c3cccc(C(F)(F)F)c3)ccnc21 [Compound 107, (2Z)-4-hydroxy-2-({1-methyl-4-[3-(trifluoromethyl)phenyl]-1H-pyrrolo[2,3-b]pyridin-3-yl}methylene)-1-benzofuran-3(2H)-one] | 12.3 nM | 676 nM | 386 nM | 262 to 265 °C
6 | CNC(=O)Nc1ccc2c(c1)C(=O)/C(=C/c1cn(C)c3nccc(N4CCC(C(=O)N5CCOCC5)CC4)c13)O2 [Compound 174, 1-methyl-3-[(2Z)-2-({1-methyl-4-[4-(morpholin-4-ylcarbonyl)piperidin-1-yl]-1H-pyrrolo[2,3-b]pyridin-3-yl}methylidene)-3-oxo-2,3-dihydro-1-benzofuran-5-yl]urea] | 16.5 nM | 337 nM | 337 nM | 235 to 240 °C
7 | Cn1cc(/C=C2\Oc3cccc(O)c3C2=O)c2c(N3CCC(C(=O)N4CCOCC4)CC3)ccnc21 [Compound 150, (2Z)-4-hydroxy-2-({1-methyl-4-[4-(morpholin-4-ylcarbonyl)piperidin-1-yl]-1H-pyrrolo[2,3-b]pyridin-3-yl}methylidene)-1-benzofuran-3(2H)-one] | 1.4 nM | 50 nM | 63 nM | 358 to 361 °C
8 | Cn1cc(/C=C2\Oc3cc(O)cc(O)c3C2=O)c2c(-c3ccc(CO)cc3)ccnc21 [Compound 67, (2Z)-4,6-dihydroxy-2-({4-[4-(hydroxymethyl)phenyl]-1-methyl-1H-pyrrolo[2,3-b]pyridin-3-yl}methylene)-1-benzofuran-3(2H)-one] | 0.2 nM | 21 nM | 7 nM | > 330 °C
9 | Cn1cc(/C=C2\Oc3cccc(O)c3C2=O)c2c(N3CCC(C(=O)N4C5CCCC4COC5)CC3)ccnc21 [Compound 312, (2Z)-4-hydroxy-2-({1-methyl-4-[4-(3-oxa-9-azabicyclo[3.3.1]non-9-ylcarbonyl)piperidin-1-yl]-1H-pyrrolo[2,3-b]pyridin-3-yl}methylidene)-1-benzofuran-3(2H)-one] | 3.2 nM | 453 nM | 67 nM | 210 to 218 °C
10 | COc1ccc(-c2ccnc3c2c(/C=C2\Oc4cccc(O)c4C2=O)cn3C)cn1 [Compound 71, (2Z)-4-hydroxy-2-{[4-(6-methoxypyridin-3-yl)-1-methyl-1H-pyrrolo[2,3-b]pyridin-3-yl]methylene}-1-benzofuran-3(2H)-one] | 16 nM | 249 nM | 62 nM | 242 to 244 °C
11 | COCCN1CCN(C(=O)c2ccc(-c3ccnc4c3c(/C=C3\Oc5cccc(O)c5C3=O)cn4C)cc2)CC1 [Compound 304, (2Z)-4-hydroxy-2-{[4-(4-{[4-(2-methoxyethyl)piperazin-1-yl]carbonyl}phenyl)-1-methyl-1H-pyrrolo[2,3-b]pyridin-3-yl]methylidene}-1-benzofuran-3(2H)-one] | 1.5 nM | 312 nM | 109 nM | 118 to 122 °C
12 | CN(C)C(=O)c1ccccc1-c1ccnc2c1c(/C=C1\Oc3cccc(O)c3C1=O)cn2C [Compound 141, 2-{3-[(Z)-(4-hydroxy-3-oxo-1-benzofuran-2(3H)-ylidene)methyl]-1-methyl-1H-pyrrolo[2,3-b]pyridin-4-yl}-N,N-dimethylbenzamide] | 180 nM | 1860 nM | 5900 nM | 293 to 295 °C
13 | Cn1cc(/C=C2\Oc3ccc(NC(=O)Nc4cccnc4)cc3C2=O)c2c(N3CCC(C(=O)NCc4ccncc4)CC3)ccnc21 [Compound 271, 1-{1-methyl-3-[(Z)-{3-oxo-5-[(pyridin-3-ylcarbamoyl)amino]-1-benzofuran-2(3H)-ylidene}methyl]-1H-pyrrolo[2,3-b]pyridin-4-yl}-N-(pyridin-4-ylmethyl)piperidine-4-carboxamide] | 9 nM | 3910 nM | 4040 nM | 208 to 216 °C
14 | Cn1cc(/C=C2\Oc3ccc(NC(=O)Nc4cccnc4)cc3C2=O)c2c(N3CC4CNCC(C3)O4)ccnc21 [Compound 293, 1-[(2Z)-2-{[1-methyl-4-(9-oxa-3,7-diazabicyclo[3.3.1]non-3-yl)-1H-pyrrolo[2,3-b]pyridin-3-yl]methylidene}-3-oxo-2,3-dihydro-1-benzofuran-5-yl]-3-pyridin-3-ylurea] | 300 nM | 862 nM | > 10000 nM | 193 to 200 °C
15 | CN(C)Cc1cccc(-c2ccnc3c2c(/C=C2\Oc4cccc(O)c4C2=O)cn3C)c1 [Compound 122, (2Z)-2-[(4-{3-[(dimethylamino)methyl]phenyl}-1-methyl-1H-pyrrolo[2,3-b]pyridin-3-yl)methylene]-4-hydroxy-1-benzofuran-3(2H)-one] | 18 nM | 279 nM | 60 nM | 308 to 315 °C
16 | Cn1cc(/C=C2\Oc3cccc(O)c3C2=O)c2c(N3CCSCC3)ccnc21 [Compound 102, (2Z)-4-hydroxy-2-[(1-methyl-4-thiomorpholin-4-yl-1H-pyrrolo[2,3-b]pyridin-3-yl)methylene]-1-benzofuran-3(2H)-one] | 1.9 nM | 271 nM | 104 nM | 285 to 290 °C
